In test [1] the target is Serine/threonine-protein kinase pim-2 (Homo sapiens, UniProt Q9P1W9). The class given is functional.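 Further: value comes from a broad kinase panel profiling study in which PIM2 was one of the panel members.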
In test [2] the target is Testis-specific serine/threonine-protein kinase 1 (Homo sapiens, UniProt Q9BXA7). The class given is functional.
The target of test [3] is Mast/stem cell growth factor receptor Kit (Homo sapiens, UniProt P10721). Format: functional.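 Further: KIT entry within a kinase panel assay.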
The target of test [4] is Serine/threonine-protein kinase D2 (Homo sapiens, UniProt Q9BZL6). Format: functional.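 Further: measured against PRKD2 as one member of a kinome-wide kinase profiling panel.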
The target in test [5] is Lymphokine-activated killer T-cell-originated protein kinase (Homo sapiens, UniProt Q96KB5). The class given is functional.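 Further: value comes from a kinase panel screen in which TOPK was one of the panel members.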
Test [6] deals with T1, Histone-lysine N-methyltransferase NSD2 (Homo sapiens, UniProt O96028).
T1 sequence (O96028 whole entry): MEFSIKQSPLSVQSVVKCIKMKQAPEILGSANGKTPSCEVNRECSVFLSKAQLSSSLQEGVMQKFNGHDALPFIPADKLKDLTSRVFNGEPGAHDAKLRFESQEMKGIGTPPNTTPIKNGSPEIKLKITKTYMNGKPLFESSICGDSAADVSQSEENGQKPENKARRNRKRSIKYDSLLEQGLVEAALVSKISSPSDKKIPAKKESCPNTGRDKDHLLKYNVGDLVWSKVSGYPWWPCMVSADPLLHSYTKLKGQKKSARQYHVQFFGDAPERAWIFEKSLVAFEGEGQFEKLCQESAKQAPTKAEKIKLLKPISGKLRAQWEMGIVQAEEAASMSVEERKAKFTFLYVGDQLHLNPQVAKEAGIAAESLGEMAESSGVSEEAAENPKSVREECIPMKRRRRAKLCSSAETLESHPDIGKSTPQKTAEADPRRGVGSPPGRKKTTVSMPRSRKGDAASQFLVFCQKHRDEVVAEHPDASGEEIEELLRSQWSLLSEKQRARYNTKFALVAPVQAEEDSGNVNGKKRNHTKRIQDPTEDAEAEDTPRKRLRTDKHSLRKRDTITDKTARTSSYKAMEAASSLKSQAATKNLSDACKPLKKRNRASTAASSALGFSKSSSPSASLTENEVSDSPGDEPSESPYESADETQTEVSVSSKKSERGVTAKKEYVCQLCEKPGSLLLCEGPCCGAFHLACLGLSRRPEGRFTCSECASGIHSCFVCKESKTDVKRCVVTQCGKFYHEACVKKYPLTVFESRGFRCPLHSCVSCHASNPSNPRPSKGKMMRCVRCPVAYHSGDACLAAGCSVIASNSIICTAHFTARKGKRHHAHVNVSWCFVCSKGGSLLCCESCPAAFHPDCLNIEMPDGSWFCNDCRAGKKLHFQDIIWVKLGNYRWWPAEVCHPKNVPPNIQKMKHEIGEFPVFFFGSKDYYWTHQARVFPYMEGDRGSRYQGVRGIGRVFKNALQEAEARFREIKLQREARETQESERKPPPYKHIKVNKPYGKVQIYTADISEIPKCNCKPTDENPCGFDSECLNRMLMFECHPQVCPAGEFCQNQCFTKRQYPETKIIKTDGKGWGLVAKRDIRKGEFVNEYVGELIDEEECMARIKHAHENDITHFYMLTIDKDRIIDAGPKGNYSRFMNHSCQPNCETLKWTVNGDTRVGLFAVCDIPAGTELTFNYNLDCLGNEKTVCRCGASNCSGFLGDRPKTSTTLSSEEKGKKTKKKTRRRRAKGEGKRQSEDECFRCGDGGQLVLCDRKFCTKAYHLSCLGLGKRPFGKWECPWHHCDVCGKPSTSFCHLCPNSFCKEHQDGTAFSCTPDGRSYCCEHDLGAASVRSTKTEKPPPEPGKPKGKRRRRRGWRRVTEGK
Format: biochemical.

Structures are written as SMILES. Calls of active or inactive are those of the source. Some results are limits rather than exact numbers.

These results are taken from ChEMBL document CHEMBL1201862, “PubChem BioAssay data set” (2004).

Chain of Mast/stem cell growth factor receptor Kit (P10721 whole entry): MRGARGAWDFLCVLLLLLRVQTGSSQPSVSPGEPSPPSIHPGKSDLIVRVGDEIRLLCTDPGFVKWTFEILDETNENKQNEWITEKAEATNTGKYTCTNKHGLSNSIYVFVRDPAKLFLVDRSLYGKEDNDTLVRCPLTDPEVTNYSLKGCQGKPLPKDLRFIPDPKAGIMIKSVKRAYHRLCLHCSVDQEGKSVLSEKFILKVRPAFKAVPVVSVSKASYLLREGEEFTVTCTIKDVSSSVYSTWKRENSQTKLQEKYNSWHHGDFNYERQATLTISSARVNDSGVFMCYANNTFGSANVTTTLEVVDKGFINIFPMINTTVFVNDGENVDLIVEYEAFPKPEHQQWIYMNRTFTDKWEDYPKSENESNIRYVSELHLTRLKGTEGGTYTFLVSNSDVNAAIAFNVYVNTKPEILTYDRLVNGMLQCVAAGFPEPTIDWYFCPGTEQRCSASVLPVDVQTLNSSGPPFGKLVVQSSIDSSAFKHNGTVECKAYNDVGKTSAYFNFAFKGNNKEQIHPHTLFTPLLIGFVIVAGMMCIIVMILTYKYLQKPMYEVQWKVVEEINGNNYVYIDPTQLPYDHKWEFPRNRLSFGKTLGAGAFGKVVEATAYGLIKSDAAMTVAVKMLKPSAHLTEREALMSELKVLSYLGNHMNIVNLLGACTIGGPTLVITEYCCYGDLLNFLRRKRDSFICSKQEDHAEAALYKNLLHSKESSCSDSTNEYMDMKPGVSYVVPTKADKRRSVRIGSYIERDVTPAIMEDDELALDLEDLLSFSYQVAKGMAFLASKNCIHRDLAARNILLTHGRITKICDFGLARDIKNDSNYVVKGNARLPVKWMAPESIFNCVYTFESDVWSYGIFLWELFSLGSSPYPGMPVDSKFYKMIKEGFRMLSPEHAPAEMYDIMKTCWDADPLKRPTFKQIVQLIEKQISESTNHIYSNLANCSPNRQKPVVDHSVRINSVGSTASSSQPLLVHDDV
Chain of Serine/threonine-protein kinase D2 (Q9BZL6 whole entry): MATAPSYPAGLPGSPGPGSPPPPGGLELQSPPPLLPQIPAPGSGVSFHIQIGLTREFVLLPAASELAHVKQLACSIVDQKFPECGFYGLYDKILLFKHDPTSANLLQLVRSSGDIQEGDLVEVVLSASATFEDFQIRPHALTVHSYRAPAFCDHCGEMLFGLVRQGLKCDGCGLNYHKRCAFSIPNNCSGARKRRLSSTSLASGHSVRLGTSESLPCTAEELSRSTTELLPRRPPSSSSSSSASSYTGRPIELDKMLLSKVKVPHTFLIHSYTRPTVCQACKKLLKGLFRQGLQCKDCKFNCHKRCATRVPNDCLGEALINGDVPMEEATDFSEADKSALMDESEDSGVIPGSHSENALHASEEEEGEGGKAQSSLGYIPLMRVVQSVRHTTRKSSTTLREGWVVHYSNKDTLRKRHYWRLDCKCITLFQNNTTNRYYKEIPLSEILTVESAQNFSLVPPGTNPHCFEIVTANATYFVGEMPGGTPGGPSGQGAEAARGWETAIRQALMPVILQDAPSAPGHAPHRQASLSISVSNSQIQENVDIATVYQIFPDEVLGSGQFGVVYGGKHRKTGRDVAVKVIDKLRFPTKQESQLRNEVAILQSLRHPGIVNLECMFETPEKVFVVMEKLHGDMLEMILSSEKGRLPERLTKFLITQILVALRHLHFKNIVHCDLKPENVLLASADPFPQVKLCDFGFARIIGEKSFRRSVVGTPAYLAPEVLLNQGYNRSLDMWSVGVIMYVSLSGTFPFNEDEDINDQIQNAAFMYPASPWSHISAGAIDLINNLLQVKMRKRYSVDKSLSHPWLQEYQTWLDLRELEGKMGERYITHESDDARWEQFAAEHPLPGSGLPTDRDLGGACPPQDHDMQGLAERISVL
Chain of Lymphokine-activated killer T-cell-originated protein kinase (Q96KB5 whole entry): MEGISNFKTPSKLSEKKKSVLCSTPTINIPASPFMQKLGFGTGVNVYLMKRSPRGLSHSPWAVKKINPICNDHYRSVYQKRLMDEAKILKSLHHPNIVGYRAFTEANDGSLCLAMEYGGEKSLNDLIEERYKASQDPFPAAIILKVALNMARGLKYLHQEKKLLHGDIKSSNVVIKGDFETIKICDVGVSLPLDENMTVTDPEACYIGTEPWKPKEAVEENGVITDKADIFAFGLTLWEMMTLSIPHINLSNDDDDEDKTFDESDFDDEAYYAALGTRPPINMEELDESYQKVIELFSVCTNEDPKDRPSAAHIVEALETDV
Chain of Testis-specific serine/threonine-protein kinase 1 (Q9BXA7 whole entry): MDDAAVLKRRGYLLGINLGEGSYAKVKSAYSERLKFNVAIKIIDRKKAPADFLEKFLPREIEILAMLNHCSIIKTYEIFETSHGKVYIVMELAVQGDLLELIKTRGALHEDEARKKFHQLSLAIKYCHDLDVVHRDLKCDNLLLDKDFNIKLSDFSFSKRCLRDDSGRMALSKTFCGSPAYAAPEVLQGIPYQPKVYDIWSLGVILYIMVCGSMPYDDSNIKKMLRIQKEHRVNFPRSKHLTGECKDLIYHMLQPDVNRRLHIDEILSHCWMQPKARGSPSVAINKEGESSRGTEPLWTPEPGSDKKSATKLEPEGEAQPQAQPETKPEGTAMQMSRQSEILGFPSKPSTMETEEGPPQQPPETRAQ
Chain of Serine/threonine-protein kinase pim-2 (Q9P1W9 whole entry): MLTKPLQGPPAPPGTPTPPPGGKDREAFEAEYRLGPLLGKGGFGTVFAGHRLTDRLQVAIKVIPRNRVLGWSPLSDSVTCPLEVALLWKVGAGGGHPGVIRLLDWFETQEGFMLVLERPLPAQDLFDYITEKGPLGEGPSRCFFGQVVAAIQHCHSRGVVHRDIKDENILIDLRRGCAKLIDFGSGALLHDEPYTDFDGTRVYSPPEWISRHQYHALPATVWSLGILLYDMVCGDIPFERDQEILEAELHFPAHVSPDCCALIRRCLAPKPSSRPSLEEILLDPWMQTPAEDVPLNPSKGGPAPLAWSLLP

Take `CS(=O)(=O)N(Cc1ccc2[nH]c(=O)c3cccn3c2c1)C1CC1`: the Ki was > 1.58 µM (inactive) in test [1]; > 1.58 µM (inactive) in test [2]; 251 nM (active) in test [3]; 200 nM (active) in test [4]; 2 µM (active) in test [5].

With `OCC[n+]1c2ccccc2nc2ccc(N3CCOCC3)cc21`, the AC50 in test [6] is 6.78 µM (active).

By Ki is commonly meant the equilibrium dissociation constant of an inhibitor or competing ligand from its target. Broadly, the AC50 is the midpoint of the concentration-response curve, whichever way the signal moves.
